Reference: patent publication US12121540B2, “CBL inhibitors and compositions for use in adoptive cell therapy” (Nurix Therapeutics, Inc., priority 2019, dated 2024)

Assays:
E.G7-OVA tumors = assay: Adoptive transfer of ex vivo expanded OT-1 cells into E.G7-OVA tumor-bearing mice: antitumor response; assay type: in vivo, mouse
Text: Antigen specific T cells from transgenic mice can be leveraged as a model for CAR T or TIL expansion ex vivo with a Cbl inhibitor. The OT-1 transgenic animals, that are commercially available, have CD8 T cells that recognize OVA peptide aa 257-264 when presented by the MHC I molecule. CD8+ T cells from OT-1 mice were isolated from a single cell suspension of splenocytes by negative selection (StemCell Technologies cat #19853 EasySep™ Mouse CD8+ T Cell Isolation Kit). Cell were then resuspended in complete media (RPMI1640, 10% heat inactivated FBS, 1× Penicillin/Streptomycin, 1× Glutamine and […]-mercaptoethanol) at concentration of 0.5×10^6 per mL. Six well tissue culture plates (Falcon) were coated with 2 ug/mL of anti-mouse CD3 (Bio Xcell Cat #BE0001-1-R100 mg InVivoMAb anti-mouse CD3ε Clone: 145-2C11) for >3 hrs at 37° C. and washed with PBS (MediaTech) prior to cell addition. […] Following three days of OT-1 T cell activation and expansion the cells were collected, counted and immunophenotyped by flow cytometry by measuring expression of differentiation and additional T cell makers including: CD3, CD4, CD8, CD45, CD25, Granzyme B, CD107a, CD127, PD-1, TIM3, LAG3, KLRG-1, ICOS, TCF1, Ki67, T-bet and FOXP3.
Dead cells were removed (Miltenyi Biotec Cat #130-090-101) prior to transfer in vivo to monitor their trafficking and function in an EG.7 lymphoma model, which expresses the OVA antigen. Approximately five million cells per mouse were transferred to mice having an average tumor burden of about 70 mm^3. Following in vivo transfer of the OT-1 cells, antitumor response was monitored over time and the quality and quantity of immune response were assessed at various time points.
The expanded OT-1 cells were characterized by FACS analysis and transferred into E.G7-OVA mice, which bear ovalbumin (OVA) expressing tumors. Following in vivo transfer of expanded OT-1 cells, antitumor response was monitored over time and the quality and quantity of immune response was assessed at various time points. Analysis included FACS analysis on blood, tumor, and spleen samples. Analysis also included re-stimulation of splenocytes with OVA Class I peptide to evaluate the multifunctionality of the antigen-specific effector T cells.
On Day 0, E.G7-OVA cells were implanted into each mouse. On Day 5, approximately 5×10^6 in vitro expanded OT-1 cells were injected into the tail of each mouse. On Day 9, blood was analyzed by FACS. On Day 14, blood, tumor and spleen samples were analyzed by FACS. On Day 27, blood was analyzed by FACS. Tumor volume was measured approximately every five days through about 50 days post implant.

[1] = test system: human T cells from peripheral blood mononuclear cells; assay: Expansion of CMV pp65 reactive T cells from peripheral blood mononuclear cells; assay type: cell-based; details: for Expansion of T cells from PBMC, total cell number relative to IL-2 alone: day 11
Text: At day eleven, cells were pooled and counted, and immunophenotyped at day 11 by flow cytometry by measuring expression of lineage (CD4, CD8) and differentiation (including CD45RA, CD45RO, CD95, CCR7, CD62L, TCF1, PD-1, TIM3, LAG3) markers.

[2] = test system: human tumor-infiltrating lymphocytes (TIL); assay: Ex vivo expansion of TIL from human tumor fragments (pre-REP); assay type: cell-based; details: for Expansion of TIL, total cell number relative to IL-2 alone: day 17
Description: Samples of human ovarian and colon tumors were obtained from the Cooperative Human Tissue Network (CHTN, c/o Vanderbilt University Medical Center, Nashville, TN). Solid tumor specimens were carefully dissected free of surrounding fatty and necrotic areas. The tumors were sliced into 8 mm^3 (2×2×2 mm^3) fragments under sterile conditions using a scalpel and a scalpel holder.
The plates were placed in a humidified 37° C. incubator with 5% CO2. Half of the medium was replaced every two days after culture initiation. […] Subsequently, half the media was replaced thrice weekly, cultures were split to maintain a cell density of 1×10^6 cells/mL. […] Mitochondrial markers including, Mitotracker, Mitoprobe, and 2-NBDG may also be used to assess differentiation and/or activation of cells.

[3] = Cbl inhibitor in the absence of IL-2

## C[C@@H]1CN(Cc2cc3c(c(C(F)(F)F)c2)CN(c2cccc(C4(Cc5nncn5C)COC4)c2)C3=O)CCC1(F)F [compound 103]
E.G7-OVA tumors; 3-day ex vivo exposure, alone or in combination with IL-2
  Anti-tumor phenotype of transferred T cells vs controls: conferred a lasting anti-tumor phenotype for over a month
E.G7-OVA tumors; OT-1 cells expanded with compound 103, FIG. 12A
  Inhibition of tumor growth vs IL-2 expanded cells: more pronounced inhibition of tumor growth
E.G7-OVA tumors; OT-1 cells expanded with compound 103, FIG. 12B
  Long-term survival vs IL-2 expanded cells: improved long-term survival
E.G7-OVA tumors; OT-1 cells expanded with compound 103 plus IL-2, FIG. 12A
  Inhibition of tumor growth vs single agents alone: more pronounced inhibition of tumor growth
E.G7-OVA tumors; OT-1 cells expanded with compound 103 plus IL-2, FIG. 12B
  Long term survival vs single agents alone: superior long term survival
E.G7-OVA tumors; expanded with compound 103 (1 μM) alone, FIGS. 11A and 11B
  Potency of expanded CD8+ OT-1 cells (tumor volume) vs IL-2 expanded: at least as potent
E.G7-OVA tumors; mice subcutaneously implanted with E.G7-OVA cells, FIG. 9
  Rejection of established tumors by expanded OT-1 cells: potent effectors capable of rejecting established tumors
[1]; [3]
  Expansion of T cells: considerable expansion of T cells
[1]; Donor 1, 0.1 μM Cbl-i
  Expansion of T cells from PBMC, total cell number relative to IL-2 alone: 12%
[1]; Donor 1, 1.0 μM Cbl-i
  Expansion of T cells from PBMC, total cell number relative to IL-2 alone: 12%
[1]; Donor 1, 10 μM Cbl-i
  Expansion of T cells from PBMC, total cell number relative to IL-2 alone: 44%
[1]; Donor 1, IL-2 + 0.1 μM Cbl-i
  Expansion of T cells from PBMC, total cell number relative to IL-2 alone: 614%
[1]; Donor 1, IL-2 + 1.0 μM Cbl-i
  Expansion of T cells from PBMC, total cell number relative to IL-2 alone: 1007%
[1]; Donor 1, IL-2 + 10 μM Cbl-i
  Expansion of T cells from PBMC, total cell number relative to IL-2 alone: 898%
[1]; Donor 2, 0.1 μM Cbl-i
  Expansion of T cells from PBMC, total cell number relative to IL-2 alone: 70%
[1]; Donor 2, 1.0 μM Cbl-i
  Expansion of T cells from PBMC, total cell number relative to IL-2 alone: 95%
[1]; Donor 2, 10 μM Cbl-i
  Expansion of T cells from PBMC, total cell number relative to IL-2 alone: 45%
[1]; Donor 2, IL-2 + 0.1 μM Cbl-i
  Expansion of T cells from PBMC, total cell number relative to IL-2 alone: 2059%
[1]; Donor 2, IL-2 + 1.0 μM Cbl-i
  Expansion of T cells from PBMC, total cell number relative to IL-2 alone: 170%
[1]; Donor 2, IL-2 + 10 μM Cbl-i
  Expansion of T cells from PBMC, total cell number relative to IL-2 alone: 2161%
[1]; Donor 3, 0.1 μM Cbl-i
  Expansion of T cells from PBMC, total cell number relative to IL-2 alone: 175%
[1]; Donor 3, 1.0 μM Cbl-i
  Expansion of T cells from PBMC, total cell number relative to IL-2 alone: 75%
[1]; Donor 3, 10 μM Cbl-i
  Expansion of T cells from PBMC, total cell number relative to IL-2 alone: 38%
[1]; Donor 3, IL-2 + 0.1 μM Cbl-i
  Expansion of T cells from PBMC, total cell number relative to IL-2 alone: 3622%
[1]; Donor 3, IL-2 + 1.0 μM Cbl-i
  Expansion of T cells from PBMC, total cell number relative to IL-2 alone: 2145%
[1]; Donor 3, IL-2 + 10 μM Cbl-i
  Expansion of T cells from PBMC, total cell number relative to IL-2 alone: 1151%
[2]; [3]
  Expansion of TIL: considerable expansion of TIL
[2]; TIL1 (ovary), 0.1 μM Cbl-i
  Expansion of TIL, total cell number relative to IL-2 alone: 90%
[2]; TIL1 (ovary), 1.0 μM Cbl-i
  Expansion of TIL, total cell number relative to IL-2 alone: 75%
[2]; TIL1 (ovary), 10 μM Cbl-i
  Expansion of TIL, total cell number relative to IL-2 alone: 60%
[2]; TIL1 (ovary), IL-2 + 0.1 μM Cbl-i
  Expansion of TIL, total cell number relative to IL-2 alone: 300%
[2]; TIL1 (ovary), IL-2 + 1.0 μM Cbl-i
  Expansion of TIL, total cell number relative to IL-2 alone: 450%
[2]; TIL1 (ovary), IL-2 + 10 μM Cbl-i
  Expansion of TIL, total cell number relative to IL-2 alone: 450%
[2]; TIL2 (ovary), 0.1 μM Cbl-i
  Expansion of TIL, total cell number relative to IL-2 alone: 30%
[2]; TIL2 (ovary), 1.0 μM Cbl-i
  Expansion of TIL, total cell number relative to IL-2 alone: 26%
[2]; TIL2 (ovary), 10 μM Cbl-i
  Expansion of TIL, total cell number relative to IL-2 alone: 22%
[2]; TIL2 (ovary), IL-2 + 0.1 μM Cbl-i
  Expansion of TIL, total cell number relative to IL-2 alone: 49%
[2]; TIL2 (ovary), IL-2 + 1.0 μM Cbl-i
  Expansion of TIL, total cell number relative to IL-2 alone: 86%
[2]; TIL2 (ovary), IL-2 + 10 μM Cbl-i
  Expansion of TIL, total cell number relative to IL-2 alone: 49%
[2]; TIL3 (ovary), 0.1 μM Cbl-i
  Expansion of TIL, total cell number relative to IL-2 alone: 30%
[2]; TIL3 (ovary), 1.0 μM Cbl-i
  Expansion of TIL, total cell number relative to IL-2 alone: 43%
[2]; TIL3 (ovary), 10 μM Cbl-i
  Expansion of TIL, total cell number relative to IL-2 alone: 16%
[2]; TIL3 (ovary), IL-2 + 0.1 μM Cbl-i
  Expansion of TIL, total cell number relative to IL-2 alone: 103%
[2]; TIL3 (ovary), IL-2 + 1.0 μM Cbl-i
  Expansion of TIL, total cell number relative to IL-2 alone: 114%
[2]; TIL3 (ovary), IL-2 + 10 μM Cbl-i
  Expansion of TIL, total cell number relative to IL-2 alone: 110%
[2]; TIL4 (colon), 0.1 μM Cbl-i
  Expansion of TIL, total cell number relative to IL-2 alone: 45%
[2]; TIL4 (colon), 1.0 μM Cbl-i
  Expansion of TIL, total cell number relative to IL-2 alone: 58%
[2]; TIL4 (colon), 10 μM Cbl-i
  Expansion of TIL, total cell number relative to IL-2 alone: 54%
[2]; TIL4 (colon), IL-2 + 0.1 μM Cbl-i
  Expansion of TIL, total cell number relative to IL-2 alone: 113%
[2]; TIL4 (colon), IL-2 + 1.0 μM Cbl-i
  Expansion of TIL, total cell number relative to IL-2 alone: 197%
[2]; TIL4 (colon), IL-2 + 10 μM Cbl-i
  Expansion of TIL, total cell number relative to IL-2 alone: 170%
[2]; TIL5 (ovary), 0.1 μM Cbl-i
  Expansion of TIL, total cell number relative to IL-2 alone: 50%
[2]; TIL5 (ovary), 1.0 μM Cbl-i
  Expansion of TIL, total cell number relative to IL-2 alone: 70%
[2]; TIL5 (ovary), 10 μM Cbl-i
  Expansion of TIL, total cell number relative to IL-2 alone: 90%
[2]; TIL5 (ovary), IL-2 + 0.1 μM Cbl-i
  Expansion of TIL, total cell number relative to IL-2 alone: 20%
[2]; TIL5 (ovary), IL-2 + 1.0 μM Cbl-i
  Expansion of TIL, total cell number relative to IL-2 alone: 10%
[2]; TIL5 (ovary), IL-2 + 10 μM Cbl-i
  Expansion of TIL, total cell number relative to IL-2 alone: 20%
[2]; TIL6 (ovary), 0.1 μM Cbl-i
  Expansion of TIL, total cell number relative to IL-2 alone: 93%
[2]; TIL6 (ovary), 1.0 μM Cbl-i
  Expansion of TIL, total cell number relative to IL-2 alone: 87%
[2]; TIL6 (ovary), 10 μM Cbl-i
  Expansion of TIL, total cell number relative to IL-2 alone: 80%
[2]; TIL6 (ovary), IL-2 + 0.1 μM Cbl-i
  Expansion of TIL, total cell number relative to IL-2 alone: 280%
[2]; TIL6 (ovary), IL-2 + 1.0 μM Cbl-i
  Expansion of TIL, total cell number relative to IL-2 alone: 260%
[2]; TIL6 (ovary), IL-2 + 10 μM Cbl-i
  Expansion of TIL, total cell number relative to IL-2 alone: 240%
[2]; both IL-2 and Cbl inhibitor, TIL1 and TIL4
  Production of TIL vs IL-2 or Cbl inhibitor alone: substantially more TIL
